20 compounds from ChEMBL document CHEMBL5052842, “Pharmaceutical compounds and their use as inhibitors of ubiquitin specific protease 19 (usp19)” (2020) can be followed below.

This experiment addresses T1, Ubiquitin carboxyl-terminal hydrolase 19 (Homo sapiens, UniProt O94966).
T1 sequence (O94966 whole entry): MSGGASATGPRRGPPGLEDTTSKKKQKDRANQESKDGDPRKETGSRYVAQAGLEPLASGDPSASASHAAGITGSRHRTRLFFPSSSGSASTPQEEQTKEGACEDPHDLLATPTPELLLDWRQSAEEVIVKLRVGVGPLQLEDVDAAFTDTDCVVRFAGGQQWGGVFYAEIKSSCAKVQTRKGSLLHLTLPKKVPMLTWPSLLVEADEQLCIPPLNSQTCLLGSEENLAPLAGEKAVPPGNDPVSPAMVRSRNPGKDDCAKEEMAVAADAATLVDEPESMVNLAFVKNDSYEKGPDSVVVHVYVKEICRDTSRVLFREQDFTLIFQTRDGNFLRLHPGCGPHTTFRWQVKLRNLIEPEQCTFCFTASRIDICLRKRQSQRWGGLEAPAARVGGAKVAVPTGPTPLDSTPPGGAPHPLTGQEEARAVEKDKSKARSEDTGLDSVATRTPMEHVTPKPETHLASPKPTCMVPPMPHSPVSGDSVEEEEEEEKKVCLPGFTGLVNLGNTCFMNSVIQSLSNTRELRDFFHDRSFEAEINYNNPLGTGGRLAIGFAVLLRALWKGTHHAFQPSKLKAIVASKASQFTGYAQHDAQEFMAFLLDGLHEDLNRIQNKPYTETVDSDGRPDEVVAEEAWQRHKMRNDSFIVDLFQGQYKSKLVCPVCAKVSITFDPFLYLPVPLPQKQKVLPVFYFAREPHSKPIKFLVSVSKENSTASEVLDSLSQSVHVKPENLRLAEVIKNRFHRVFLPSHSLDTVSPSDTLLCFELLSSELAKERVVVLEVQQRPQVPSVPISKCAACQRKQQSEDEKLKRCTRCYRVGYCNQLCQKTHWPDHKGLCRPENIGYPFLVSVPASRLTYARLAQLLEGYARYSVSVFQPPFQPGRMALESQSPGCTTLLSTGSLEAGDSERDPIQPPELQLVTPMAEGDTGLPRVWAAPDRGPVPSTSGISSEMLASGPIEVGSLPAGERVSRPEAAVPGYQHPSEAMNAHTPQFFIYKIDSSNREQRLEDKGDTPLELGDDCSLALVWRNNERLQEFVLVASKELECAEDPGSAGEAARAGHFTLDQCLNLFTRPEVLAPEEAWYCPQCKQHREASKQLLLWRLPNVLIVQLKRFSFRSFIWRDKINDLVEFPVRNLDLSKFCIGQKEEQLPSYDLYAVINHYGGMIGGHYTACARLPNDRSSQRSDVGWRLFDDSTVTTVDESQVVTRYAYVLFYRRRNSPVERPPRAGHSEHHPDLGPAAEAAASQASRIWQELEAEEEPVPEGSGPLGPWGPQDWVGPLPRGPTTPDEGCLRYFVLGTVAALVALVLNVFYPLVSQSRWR
As to the kind of experiment: Inhibition of C-terminal His6-tagged recombinant human USP19 using iso-peptide ubiquitin-Lys-TAMRA as substrate incubated for 30 mins and measured after 90 mins by fluorescent polarization assay.

Molecules are shown by their SMILES. A value given as a limit tells only on which side of the number the result lay.

For `CS(=O)(=O)c1cn(CC2(O)CCN(C(=O)N3CCNC[C@H]3c3ccccc3)CC23CCCC3)c(=O)cc1-c1ccccc1` (stereo not given in full), the IC50 is below 500 nM.
Next, `O=C(N1CC[C@@](O)(Cn2cnc(-c3ccccc3)cc2=O)C2(CCCC2)C1)N1CCNC[C@@H]1c1ccccc1`: below 500 nM.
Next, `O=C(N1CCC(O)(Cn2cnc3c(cnn3Cc3ccccc3)c2=O)C2(CCCC2)C1)N1CCNC[C@H]1c1ccccc1` (stereo not given in full): below 500 nM; `Cn1nccc1-c1cc(=O)n(C[C@]2(O)CCN(C(=O)N3CCOC[C@H]3c3ccccc3)CC23CCCC3)cn1`: below 500 nM; `CSc1ncc2c(=O)n(CC3(O)CCN(C(=O)[C@H](C)CC4CCCCC4)CC34CCCC4)n(C)c2n1` (stereo not given in full): below 500 nM.
Then `COc1cccc(F)c1-c1cc(=O)n(C[C@]2(O)CCN(C(=O)N3CCNC[C@H]3c3ccccc3)CC23CCCC3)cn1`, with below 500 nM; and `O=C(N1CC[C@@](O)(Cn2cnc(-c3ccccc3OC(F)F)cc2=O)C2(CCCC2)C1)N1CCNC[C@H]1c1ccccc1`, with below 500 nM.
Turning to `O=C(N1CC[C@@](O)(Cn2ccc(C3CC3)cc2=O)C2(CCCC2)C1)N1CCNC[C@H]1c1ccccc1`, the IC50 is below 500 nM.
As for `N=S1(=O)CCN(C(=O)N2CC[C@@](O)(Cn3cnc(-c4ccccc4)cc3=O)C3(CCCC3)C2)C(c2ccccc2)C1` (stereo not given in full), the IC50 was below 500 nM.
Then `CN1CCN(C(=O)N2CC[C@@](O)(Cn3cnc(-c4ccccc4)cc3=O)C3(CCCC3)C2)[C@H](c2ccccc2)C1`, with below 500 nM; and `O=C(N1CC[C@@](O)(Cn2cnc(N3CCC(F)CC3)cc2=O)C2(CCCC2)C1)N1CCNC[C@H]1c1ccccc1`, with below 500 nM.
`CN(C)c1ccc(-c2cc(=O)n(C[C@]3(O)CCN(C(=O)N4CCNC[C@H]4c4ccccc4)CC34CCCC4)cn2)cc1`: the IC50 is below 500 nM.
As to `O=C(N1CC[C@@](O)(Cn2cnc(-c3ccccc3)cc2=O)C2(CCCC2)C1)N1CCNC[C@H]1c1cccc(F)c1`, the IC50 was below 500 nM.
Next, `O=C(NCc1ccc(F)cc1F)N1CC[C@@](O)(Cn2cnc(-c3ccccc3)cc2=O)C2(CCCC2)C1`: below 500 nM; `Cc1cn(CC2(O)CCN(C(=O)N3CCNC[C@H]3c3ccccc3)CC23CCCC3)c(=O)cn1` (stereo not given in full): below 500 nM; `O=C(N1CC[C@@](O)(Cn2ccc3ncncc3c2=O)C2(CCCC2)C1)N1CCNC[C@H]1c1ccccc1`: below 500 nM.
Next, `O=C(N1CC[C@@](O)(Cn2cnc(-c3ccccc3)cc2=O)C2(CCCC2)C1)N1CCSC[C@H]1c1cc(F)ccc1F`: below 500 nM; `CSc1cn(CC2(O)CCN(C(=O)[C@H](C)CC3CCCCC3)CC23CCCC3)c(=O)cc1Cl` (stereo not given in full): below 500 nM; `O=C(NCc1ccccc1F)N1CCC(O)(Cn2cnc(-c3ccccc3)cc2=O)C2(CCCC2)C1` (stereo not given): below 500 nM.
For `C[C@H](CC(F)(F)F)C(=O)N1CCC(O)(CN2CCN(c3ccccn3)CC2=O)C2(CCCC2)C1` (stereo not given in full), the half-maximal inhibitory concentration (IC50) was below 500 nM.
